The values below come from patent US10988477B2 (Merck Patent GmbH, priority 2018, dated 2021).

The target in one test is GCN2 kinase (Homo sapiens, UniProt Q9P2K8). Kind of test: GCN2 enzyme inhibition assay (Transcreener ADP2 fluorescence polarization). In kind it is biochemical. Conditions: 280 μM ATP. The essentials: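 Inhibition of 4 nM GCN2 was measured with compound up to 8 μM final, ATP 280 μM and (RS)7 peptide 200 μM over a 1 h, 25 °C reaction. ADP FP readout; IC50 and Ki(app) calculated from percent inhibition.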
On the technique in general: Fluorescence polarisation rises when a labelled molecule tumbles more slowly, as on binding a larger partner.

In test [1] the target is intracellular GCN2 (phosphorylation of the GCN2 substrate eIF2α) (Homo sapiens, UniProt Q9P2K8). Kind of test: GCN2 cellular inhibition assay (AlphaScreen SureFire P-eIF2α Ser51, borrelidin-treated U2OS cells). The settings on record: biomarker assay, phosphorylated eIF2α Ser51 in borrelidin-treated U2OS cells. It counts as cell-based. The essentials:
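Borrelidin at 10 μM is added to U2OS cells immediately after compound (4-fold dilution series, 40 μM top final) for 1 h at 37 °C. Phosphorylated eIF2α Ser51 in lysates is quantified by AlphaScreen and expressed as percent inhibition against borrelidin-stimulated controls.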
In general terms: In Alpha technology, singlet oxygen from a donor bead excites a nearby acceptor bead.

Setting [2] is: Enzyme activity for compounds of Formula IV, Ki(app), 25° C.
The mark [3] stands for this setting: compounds of Formula II, 4 nM GCN2 kinase.

Structures are written as SMILES. Some results are limits rather than exact numbers.

Sequence of intracellular GCN2 (phosphorylation of the GCN2 substrate eIF2α) (Q9P2K8 whole entry): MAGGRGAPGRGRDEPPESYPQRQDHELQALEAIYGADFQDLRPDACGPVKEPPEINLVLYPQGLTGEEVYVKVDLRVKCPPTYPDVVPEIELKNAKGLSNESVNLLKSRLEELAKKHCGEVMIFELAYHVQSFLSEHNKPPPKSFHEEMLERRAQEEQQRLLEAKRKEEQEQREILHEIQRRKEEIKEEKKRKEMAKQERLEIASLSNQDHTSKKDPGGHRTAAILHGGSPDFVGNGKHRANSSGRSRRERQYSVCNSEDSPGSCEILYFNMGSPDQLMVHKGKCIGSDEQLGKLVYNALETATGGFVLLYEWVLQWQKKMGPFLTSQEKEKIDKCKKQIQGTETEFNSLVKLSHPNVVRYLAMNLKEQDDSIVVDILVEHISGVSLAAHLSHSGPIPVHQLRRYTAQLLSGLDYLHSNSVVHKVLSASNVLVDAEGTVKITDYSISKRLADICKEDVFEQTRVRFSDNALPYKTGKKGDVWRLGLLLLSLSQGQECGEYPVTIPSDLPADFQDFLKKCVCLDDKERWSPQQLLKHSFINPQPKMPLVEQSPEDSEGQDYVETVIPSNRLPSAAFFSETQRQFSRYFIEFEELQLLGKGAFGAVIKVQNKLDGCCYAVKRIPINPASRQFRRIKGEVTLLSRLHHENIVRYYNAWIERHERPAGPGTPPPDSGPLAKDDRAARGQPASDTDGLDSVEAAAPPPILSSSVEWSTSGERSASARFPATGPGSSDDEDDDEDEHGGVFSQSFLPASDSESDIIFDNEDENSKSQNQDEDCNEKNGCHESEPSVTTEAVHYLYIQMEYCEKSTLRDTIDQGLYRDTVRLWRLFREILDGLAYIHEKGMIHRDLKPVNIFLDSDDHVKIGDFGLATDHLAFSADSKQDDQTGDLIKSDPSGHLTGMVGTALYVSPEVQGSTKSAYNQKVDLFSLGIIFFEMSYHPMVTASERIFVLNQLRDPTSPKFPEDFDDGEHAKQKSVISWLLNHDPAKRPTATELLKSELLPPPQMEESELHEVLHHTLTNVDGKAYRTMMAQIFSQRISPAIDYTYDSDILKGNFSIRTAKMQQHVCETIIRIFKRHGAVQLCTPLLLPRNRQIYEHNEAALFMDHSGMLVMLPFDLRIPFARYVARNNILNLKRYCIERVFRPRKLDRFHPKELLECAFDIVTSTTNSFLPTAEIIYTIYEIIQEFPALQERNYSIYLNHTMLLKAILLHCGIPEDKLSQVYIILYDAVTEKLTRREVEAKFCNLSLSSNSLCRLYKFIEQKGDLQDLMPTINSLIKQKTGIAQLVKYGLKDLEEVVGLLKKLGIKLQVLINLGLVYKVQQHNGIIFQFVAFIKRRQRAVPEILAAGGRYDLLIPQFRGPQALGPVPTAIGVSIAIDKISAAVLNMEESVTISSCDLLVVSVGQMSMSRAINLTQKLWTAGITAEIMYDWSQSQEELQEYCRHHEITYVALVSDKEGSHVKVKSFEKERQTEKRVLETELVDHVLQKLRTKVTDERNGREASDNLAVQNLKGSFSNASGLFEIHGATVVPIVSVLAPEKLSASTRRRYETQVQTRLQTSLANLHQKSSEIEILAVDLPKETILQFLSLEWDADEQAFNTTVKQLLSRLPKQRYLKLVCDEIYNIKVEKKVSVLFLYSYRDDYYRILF
Sequence of GCN2 kinase (Q9P2K8 whole entry): as above

One may read the IC50 as the concentration at which inhibition is half-maximal. A higher IC50 goes with weaker potency in that assay. `OCCC1CCN(c2ccnc(-c3cnc4cnc(C(F)(F)F)cn34)n2)C1` (stereo not drawn) [IV-435, 2-(1-(2-(6-(Trifluoromethyl)imidazo[1,2-a]pyrazin-3-yl)pyrimidin-4-yl)pyrrolidin-3-yl)ethan-1-ol] had a Ki on GCN2 kinase (setting [2]) of 100 to 1000 nM. In test [1] (compounds of Formula IV), this compound yielded an IC50 of 500 to 5000 nM.
On to `OCCC1CCCN(c2cc(-c3cnc4ccc(C(F)(F)F)nn34)ncn2)C1` (stereo not drawn) [II-499, 2-(1-(6-(6-(Trifluoromethyl)imidazo[1,2-b]pyridazin-3-yl)pyrimidin-4-yl)piperidin-3-yl)ethan-1-ol], for which the Ki on GCN2 kinase (setting [3]) was in the range of 10 to 1000 nM. The compound also returned an IC50 in test [1] (compounds of Formula II) of 500 to 5000 nM.
`OCCc1cc(C2CCCN(c3ccnc(-c4cnc5cnc(C(F)F)cn45)n3)C2)n[nH]1` (stereo not drawn) [IV-92, 2-(3-(1-(2-(6-(Difluoromethyl)imidazo[1,2-a]pyrazin-3-yl)pyrimidin-4-yl)piperidin-3-yl)-1H-pyrazol-5-yl)ethan-1-ol] came in with a Ki on GCN2 kinase (setting [2]) of 100 to 1000 nM. For the same compound, the IC50 in test [1] (compounds of Formula IV) was over 5000 nM.
`CC1NCCN(c2cc(-c3cnc4ccc(C(F)F)nn34)ncn2)C1C` (stereo not drawn) [II-548, 6-(Difluoromethyl)-3-(6-(2,3-dimethylpiperazin-1-yl)pyrimidin-4-yl)imidazo[1,2-b]pyridazine] yielded a Ki at GCN2 kinase (setting [3]) of over 1000 nM. For the same compound, in test [1] (compounds of Formula II), the IC50 was over 5000 nM.
In the case of `N#CCC1CCCN(c2ccnc(-c3cnc4cnc(C(F)F)cn34)n2)C1` (stereo not drawn) [IV-82, 2-(1-(2-(6-(Difluoromethyl)imidazo[1,2-a]pyrazin-3-yl)pyrimidin-4-yl)piperidin-3-yl)acetonitrile], the Ki at GCN2 kinase (setting [2]) lay within 100 to 1000 nM. This compound also showed an IC50 in test [1] (compounds of Formula IV) of over 5000 nM.
`Oc1cccc(-c2ccnc(-c3cnc4cnc(C(F)F)cn34)n2)c1` [IV-161, 3-(2-(6-(Difluoromethyl)imidazo[1,2-a]pyrazin-3-yl)pyrimidin-4-yl)phenol] came in with a Ki on GCN2 kinase (setting [2]) of 100 to 1000 nM. Also, the IC50 in test [1] (compounds of Formula IV) was over 5000 nM.
Compound `CS(=O)(=O)C1CCCN(c2ccnc(-c3cnc4cnc(C(F)F)cn34)n2)C1` (stereo not drawn) [IV-165, 6-(Difluoromethyl)-3-(4-(3-(methylsulfonyl)piperidin-1-yl)pyrimidin-2-yl)imidazo[1,2-a]pyrazine] registered a Ki on GCN2 kinase (setting [2]) of 100 to 1000 nM. This compound had an IC50 in test [1] (compounds of Formula IV) of over 5000 nM.
The matching figures for `CC(C)c1nc(C2=CCCN(c3ccnc(-c4cnc5cnc(Br)cn45)n3)C2)c[nH]1` [IV-385, 6-Bromo-3-(4-(5-(2-isopropyl-1H-imidazol-4-yl)-3,6-dihydropyridin-1(2H)-yl)pyrimidin-2-yl)imidazo[1,2-a]pyrazine]: 10 to 100 nM and 500 to 5000 nM.
On to `CS(=N)(=O)CC1CCCN(c2cc(-c3cnc4ccc(C(F)F)nn34)ncn2)C1` (stereo not drawn) [II-370, ((1-(6-(6-(Difluoromethyl)imidazo[1,2-b]pyridazin-3-yl)pyrimidin-4-yl)piperidin-3-yl)methyl)(imino)(methyl)-λ^6-sulfanone], for which the Ki at GCN2 kinase (setting [3]) lay in the range of 10 to 1000 nM. Further, the IC50 in test [1] (compounds of Formula II) is 500 to 5000 nM.
`CC1CN(c2cc(-c3cnc4ccc(C(F)(F)F)nn34)ncn2)C(C)C(c2cn[nH]c2)N1` (stereo not drawn) [II-705, 3-(6-(2,5-Dimethyl-3-(1H-pyrazol-4-yl)piperazin-1-yl)pyrimidin-4-yl)-6-(trifluoromethyl)imidazo[1,2-b]pyridazine] gave a Ki on GCN2 kinase (setting [3]) of under 10 nM. The compound further showed an IC50 in test [1] (compounds of Formula II) of under 500 nM.
Compound `CC1C(c2cn[nH]c2)N(CCO)C(C)CN1c1ccnc(-c2cnc3cnc(C(F)(F)F)cn23)n1` (single isomer, unassigned) [IV-636, 2-(3,6-Dimethyl-2-(1H-pyrazol-4-yl)-4-(2-(6-(trifluoromethyl)imidazo[1,2-a]pyrazin-3-yl)pyrimidin-4-yl)piperazin-1-yl)ethan-1-ol] yielded a Ki on GCN2 kinase (setting [2]) of under 10 nM. The compound also returned an IC50 in test [1] (compounds of Formula IV) of 500 to 5000 nM.
As to `NC(=O)CC1CN(c2cc(-c3cnc4ccc(C(F)F)nn34)ncn2)CCN1` (stereo not drawn) [II-483, 2-(4-(6-(6-(Difluoromethyl)imidazo[1,2-b]pyridazin-3-yl)pyrimidin-4-yl)piperazin-2-yl)acetamide], the Ki at GCN2 kinase (setting [3]) was 10 to 1000 nM. In test [1] (compounds of Formula II), this compound registered an IC50 of over 5000 nM.
